Data as given in patent US20260137697A1, “THIAZOLO[5,4-D]PYRIMIDINE COMPOUNDS, COMPOSITIONS COMPRISING THEM AND USES THEREOF” (University de Montreal, priority 2022, published 2026).

What was measured:
ARAF = biological target: T1, ARAF (Homo sapiens, UniProt P10398); test: ARAF kinase activity assay (AlphaLISA p-MEK 1/2); format: biochemical; conditions: Table A; 10 μM ATP, kinase-dead MEK1 substrate
T1 construct: ARAF kinase reactions were rigorously the same with the exception that kinase concentration was raised to 3.75 nM (cat. No. 1768-0000-1; Reaction Biology)
T1 sequence (P10398 303-606 limits assumed): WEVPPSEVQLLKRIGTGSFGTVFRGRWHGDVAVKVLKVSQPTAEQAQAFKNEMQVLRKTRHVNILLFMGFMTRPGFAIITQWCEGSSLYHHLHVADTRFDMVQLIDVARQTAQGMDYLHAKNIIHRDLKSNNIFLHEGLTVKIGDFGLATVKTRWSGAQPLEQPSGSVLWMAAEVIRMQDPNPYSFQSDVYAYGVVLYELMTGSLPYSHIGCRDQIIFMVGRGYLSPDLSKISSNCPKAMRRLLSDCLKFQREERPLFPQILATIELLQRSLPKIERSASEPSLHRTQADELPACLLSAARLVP
Description: Compound preparation: solid samples of each substance in 1dram vials were suspended in DMSO (Fisher Scientific) at a stock concentration of 20 mM. Stocks were kept at −20° C. and protected from light. If solubility of the compound at 20 mM appeared to be an issue, the initial concentration of the DMSO stock was changed to 10 mM or 5 mM.
In vitro enzymatic reactions were used for evaluating compounds intrinsic activity against BRAF, CRAF and ARAF. For BRAF and CRAF, 0.375 nM of purified GST-tagged kinases (cat. No. B4062-10UG and cat. No. R1656-10UG respectively from Millipore Sigma) were incubated with 75 nM of kinase-dead MEK1 substrate (cat. No. 40075; BPS Bioscience) in the presence of 10 μM of Ultrapure ATP (cat. No. V9102; Promega; part V915A) with and without the test compound in a buffer containing 50 mM HEPES pH 7.5, 10 mM MgCl2, 1 mM EDTA, 0.01% Brij-35 and 2 mM DTT. Separate reactions were performed with the MEK1 substrate and ATP as a blank control. ARAF kinase reactions were rigorously the same with the exception that kinase concentration was raised to 3.75 nM (cat. No. 1768-0000-1; Reaction Biology).
For compound treatment, 5 μL/well of test substance solution are placed in a 384-well proxyplate (Perkin Elmer) and mixed with 2× concentrated kinase reactions. The dilution series is selected so that nine concentrations cover a range from 100 nM to 0.01 nM. […] The final concentration of DMSO in the assay is set at 0.05%.
ARAF kinase reactions were carried out for a total of 2 hours at 30° C. and then stopped by addition of EDTA at a final concentration of 40 mM. Reactions were then detected using the AlphaLISA® SureFire® Ultra™ p-MEK 1/2 (Ser218/222) (PerkinElmer) kit. Reactions were performed with 5 μL of kinase reaction according to the manufacturer's specifications in 384-well proxyplates (Perkin Elmer) followed by overnight incubation of the AlphaLISA® reactions at room temperature in a humidified chamber. After completion of the detection reactions, the signals were recorded on a Synergy Neo2 plate reader (Biotek) equipped with AlphaLISA® filters. The effect of each compound dilution on the pMEK signal generated by ARAF reactions was expressed in % inhibition and calculated as follows. An internal 100% inhibition control (average of luminescence in kinase reactions comprising kinase dead MEK1 substrate alone) was included in each plate to measure of pMEK background and was subtracted from each data point. The average of DMSO (vehicle) controls (set as 0% inhibition) was also established and used to calculate % inhibition:
IC50 values were obtained by plotting the kinase inhibition values and fitting the dose-activity curves using a log(agonist) versus response—variable slope (four parameters) function using either GraphPadPrism (V7.0) or Dotmatics Screening Ultra platform. Standards included in the ARAF kinase assay were Belvarafenib (MedChem Express cat. No. HY-109080; CAS No. 1446113-23-0), LXH254 (MedChem Express cat. No. HY-112089; CAS No. 1800398-38-2) and BGB283 (cat. No. HY-18957; CAS No. 1446090-79-4).

BRAF = biological target: T2, BRAF (Homo sapiens, UniProt P15056); test: BRAF kinase activity assay (ADP-Glo); format: biochemical; conditions: 10 μM ATP, kinase-dead MEK1 substrate
T2 construct: GST; purchased Millipore Sigma B4062-10UG
T2 sequence (P15056 whole entry): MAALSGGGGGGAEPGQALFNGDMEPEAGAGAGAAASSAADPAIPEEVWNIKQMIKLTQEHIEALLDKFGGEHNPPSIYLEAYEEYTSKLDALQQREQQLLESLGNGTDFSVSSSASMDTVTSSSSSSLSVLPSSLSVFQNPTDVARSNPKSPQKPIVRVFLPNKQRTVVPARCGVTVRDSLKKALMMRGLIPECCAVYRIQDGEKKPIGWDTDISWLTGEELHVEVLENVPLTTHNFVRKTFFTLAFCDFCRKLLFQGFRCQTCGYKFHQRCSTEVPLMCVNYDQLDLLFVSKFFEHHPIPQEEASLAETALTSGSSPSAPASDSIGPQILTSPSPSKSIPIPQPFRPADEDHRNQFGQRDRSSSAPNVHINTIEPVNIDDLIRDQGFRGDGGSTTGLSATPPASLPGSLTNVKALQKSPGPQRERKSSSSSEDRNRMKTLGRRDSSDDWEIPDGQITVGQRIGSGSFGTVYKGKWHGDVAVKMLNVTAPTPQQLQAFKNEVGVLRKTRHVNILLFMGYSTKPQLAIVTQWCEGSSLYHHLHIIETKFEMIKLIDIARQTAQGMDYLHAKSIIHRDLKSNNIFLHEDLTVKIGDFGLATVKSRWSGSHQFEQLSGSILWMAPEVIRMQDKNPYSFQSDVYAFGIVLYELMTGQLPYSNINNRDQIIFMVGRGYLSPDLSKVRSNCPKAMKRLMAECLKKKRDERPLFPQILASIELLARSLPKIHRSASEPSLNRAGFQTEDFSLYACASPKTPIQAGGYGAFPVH
Summary of the method: (§1)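 ADP-Glo luminescence read after 2 h reactions at 30° C containing 0.375 nM GST-kinase, kinase-dead MEK1 (75 nM), ATP at 10 μM, pH 7.5 HEPES/MgCl2/DTT, 0.05% DMSO. Compounds dosed from 100 to 0.01 nM (nine points); IC50 from variable-slope fit of % inhibition.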

CRAF = biological target: T3, CRAF (Homo sapiens, UniProt P04049); test: CRAF kinase activity assay (ADP-Glo); format: biochemical; conditions: 10 μM ATP, kinase-dead MEK1 substrate
T3 construct: fused on or other part: GST tag (N-terminal according to the vendor's product)
T3 sequence (P04049 whole entry Y340E/Y341E, form open, the tested form may be a part): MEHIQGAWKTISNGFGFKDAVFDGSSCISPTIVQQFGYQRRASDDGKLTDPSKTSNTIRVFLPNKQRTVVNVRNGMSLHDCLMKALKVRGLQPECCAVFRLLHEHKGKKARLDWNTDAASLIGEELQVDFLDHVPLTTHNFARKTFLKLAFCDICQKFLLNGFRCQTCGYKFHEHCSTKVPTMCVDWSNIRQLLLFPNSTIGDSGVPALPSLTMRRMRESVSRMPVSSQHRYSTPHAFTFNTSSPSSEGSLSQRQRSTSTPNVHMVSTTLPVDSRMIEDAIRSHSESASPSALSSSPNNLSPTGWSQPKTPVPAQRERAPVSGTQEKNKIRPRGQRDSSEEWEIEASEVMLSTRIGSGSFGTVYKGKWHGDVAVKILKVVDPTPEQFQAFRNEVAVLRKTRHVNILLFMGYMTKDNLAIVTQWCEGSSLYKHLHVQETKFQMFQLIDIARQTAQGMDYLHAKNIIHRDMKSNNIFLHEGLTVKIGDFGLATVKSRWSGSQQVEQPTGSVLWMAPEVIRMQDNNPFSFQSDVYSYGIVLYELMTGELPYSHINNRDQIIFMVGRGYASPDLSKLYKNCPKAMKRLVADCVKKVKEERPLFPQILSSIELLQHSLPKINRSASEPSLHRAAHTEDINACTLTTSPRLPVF
Summary of the method: as §1

pERK, HCT116 cells = test: Phospho-ERK inhibition, AlphaLISA p-ERK 1/2, HCT-116; format: cell-based, human; conditions: for IC50: HCT116 cells (KRAS G13D), 1 h treatment; for HCT116 pERK (Ymin %): lowest % inhibition value of the pERK IC50 curve, above −20% = no paradoxical induction
Summary of the method: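 Cells in RPMI-1640 with 5% FBS plated overnight, then treated 1 h with ten-point dilutions (10 μM to 0.33 nM, 0.5% DMSO). Lysate p-ERK1/2 (Thr202/Tyr204) read by AlphaLISA SureFire Ultra; % inhibition normalised to DMSO and 1 μM trametinib background, IC50 by four-parameter fit.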

Row | SMILES | IC50 (ARAF) [nM] | IC50 (BRAF; Table 3) [nM] | IC50 (CRAF; Table 3) [nM] | IC50 (pERK, HCT116 cells; Table 3) [nM] | HCT116 pERK (Ymin %) (pERK, HCT116 cells; Table 3) [%] | IC50 (pERK, HCT116 cells; Homo sapiens, HCT-116, Table 3) [nM] | IC50 (BRAF; Table 4) [nM] | IC50 (CRAF; Table 4) [nM] | IC50 (pERK, HCT116 cells; Homo sapiens, HCT-116, Table 4) [nM]
1 | O=C1CCc2c(Oc3ccc4c(c3)[C@@H]3[C@H](O4)[C@H]3c3nc4ccc(C(F)(F)F)cc4[nH]3)ccnc2N1 [BGB283] | > 10 | – | – | – | – | – | – | – | –
2 | N#CC1CCN(c2cccc3c2ncn3-c2nc3c(Nc4c(F)ccc(NS(=O)(=O)c5cccc(Cl)c5Cl)c4F)ncnc3s2)CC1 [Example 140] | – | 1 to 10 | 10 to 50 | < 500 | −10 | – | – | – | –
3 | O=S(=O)(Nc1ccc(F)c(Nc2ncnc3sc(-n4cnc5c(N6CCOC(CO)C6)cccc54)nc23)c1F)c1cccc(Cl)c1Cl (stereo not shown) [Example 141] | – | < 1 | < 10 | < 500 | 2 | – | – | – | –
4 | O=S(=O)(Nc1ccc(F)c(Nc2ncnc3sc(-n4cnc5c(N6CCC(F)(CO)CC6)cccc54)nc23)c1F)c1cccc(Cl)c1Cl [Example 142] | – | 1 to 10 | 10 to 50 | < 500 | 0 | – | – | – | –
5 | O=S(=O)(Nc1ccc(F)c(Nc2ncnc3sc(-n4cnc5c(C6(CO)CC6)cccc54)nc23)c1F)c1cccc(Cl)c1Cl [Example 143] | – | 1 to 10 | < 10 | < 500 | −8 | – | – | – | –
6 | O=S(=O)(Nc1ccc(F)c(Nc2ncnc3sc(-n4cnc5c(N6CCC(O)CC6)cccc54)nc23)c1F)c1cccc(Cl)c1Cl [Example 144] | – | 1 to 10 | < 10 | < 500 | −4 | – | – | – | –
7 | CC1(C#N)CCN(c2cccc3c2ncn3-c2nc3c(Nc4c(F)ccc(NS(=O)(=O)c5cccc(Cl)c5Cl)c4F)ncnc3s2)CC1 [Example 145] | – | 1 to 10 | > 50 | < 500 | −13 | – | – | – | –
8 | O=S(=O)(Nc1ccc(F)c(Nc2ncnc3sc(-n4cnc5c(N6CCC7(CCOC7)CC6)cccc54)nc23)c1F)c1cccc(Cl)c1Cl [Example 146] | – | > 10 | > 50 | < 500 | −12 | – | – | – | –
9 | O=S(=O)(Nc1ccc(F)c(Nc2ncnc3sc(-n4cnc5c(N6CCC[C@H](O)C6)cccc54)nc23)c1F)c1cccc(Cl)c1Cl [Example 147] | – | < 1 | 10 to 50 | < 500 | −4 | – | – | – | –
10 | O=S(=O)(Nc1ccc(F)c(Nc2ncnc3sc(-n4cnc5c(N6CCC[C@@H](O)C6)cccc54)nc23)c1F)c1cccc(Cl)c1Cl [Example 148] | – | 1 to 10 | 10 to 50 | < 500 | −2 | – | – | – | –
11 | CCC1(O)CCN(c2cccc3c2ncn3-c2nc3c(Nc4c(F)ccc(NS(=O)(=O)c5cccc(Cl)c5Cl)c4F)ncnc3s2)CC1 [Example 149] | – | 1 to 10 | 10 to 50 | < 500 | 16 | – | – | – | –
12 | CC1(O)CCCN(c2cccc3c2ncn3-c2nc3c(Nc4c(F)ccc(NS(=O)(=O)c5cccc(Cl)c5Cl)c4F)ncnc3s2)CC1 (stereo not shown) [Example 150] | – | > 10 | 10 to 50 | 1000 to 10000 | −5 | – | – | – | –
13 | O=C1CCCC12CCN(c1cccc3c1ncn3-c1nc3c(Nc4c(F)ccc(NS(=O)(=O)c5cccc(Cl)c5Cl)c4F)ncnc3s1)CC2 [Example 151] | – | 1 to 10 | 10 to 50 | < 500 | −2 | – | – | – | –
14 | O=S(=O)(Nc1ccc(F)c(Nc2ncnc3sc(-n4cnc5c(N6CCN(CCO)CC6)cccc54)nc23)c1F)c1cccc(Cl)c1Cl [Example 152] | – | < 1 | < 10 | < 500 | 0 | – | – | – | –
15 | CS(=O)(=O)C1CCN(c2cccc3c2ncn3-c2nc3c(Nc4c(F)ccc(NS(=O)(=O)c5cccc(Cl)c5Cl)c4F)ncnc3s2)CC1 [Example 153] | – | 1 to 10 | < 10 | < 500 | −5 | – | – | – | –
16 | Cc1c(F)cccc1S(=O)(=O)Nc1ccc(F)c(Nc2ncnc3sc(-c4cncs4)nc23)c1F [Example 154, N-[2,4-difluoro-3-[(2-thiazol-5-ylthiazolo[5,4-d]pyrimidin-7-yl)amino]phenyl]-3-fluoro-2-methyl-benzenesulfonamide] | – | > 10 | > 50 | – | – | 1000 to 10000 | – | – | –
17 | CS(=O)(=O)N1CCN(c2cccc3c2ncn3-c2nc3c(Nc4c(F)ccc(NS(=O)(=O)c5cccc(Cl)c5Cl)c4F)ncnc3s2)CC1 [Example 155] | – | 1 to 10 | 10 to 50 | < 500 | −12 | – | – | – | –
18 | O=S(=O)(Nc1ccc(F)c(Nc2ncnc3sc(-n4cnc5c(N6CCNCC6)cccc54)nc23)c1F)c1cccc(Cl)c1Cl [Example 156, 2,3-dichloro-N-[2,4-difluoro-3-[[2-(4-piperazin-1-ylbenzimidazol-1-yl)thiazolo[5,4-d]pyrimidin-7-yl]amino]phenyl]benzenesulfonamide] | – | < 1 | < 10 | – | – | < 500 | – | – | –
19 | CC1(N)CCN(c2cccc3c2ncn3-c2nc3c(Nc4c(F)ccc(NS(=O)(=O)c5cccc(Cl)c5Cl)c4F)ncnc3s2)CC1 [Example 157] | – | < 1 | < 10 | < 500 | −14 | – | – | – | –
20 | O=S1(=O)CCN(c2cccc3c2ncn3-c2nc3c(Nc4c(F)ccc(NS(=O)(=O)c5cccc(Cl)c5Cl)c4F)ncnc3s2)CC1 [Example 158] | – | < 1 | < 10 | < 500 | 4 | – | – | – | –
21 | O=S(=O)(Nc1cc(F)c(F)c(Nc2ncnc3sc(-n4cnc5ccccc54)nc23)c1F)c1cccc(Cl)c1Cl [Example 159, N-[3-[[2-(benzimidazol-1-yl)thiazolo[5,4-d]pyrimidin-7-yl]amino]-2,4,5-trifluoro-phenyl]-2,3-dichloro-benzenesulfonamide] | – | – | – | – | – | – | 1 to 10 | < 10 | < 500
22 | Cc1ccc(NC(=O)c2ccnc(C(F)(F)F)c2)cc1-c1cc(OCCO)nc(N2CCOCC2)c1 [LXH254] | > 10 | – | – | – | – | – | – | – | –
